One may read the inhibition as the percentage by which the read-out fell short of the control. Usually IC50 stands for the concentration that inhibits the measured activity by half.

Experimental findings from US8580815B2, “Derivatives of azaindoles as inhibitors of protein kinases ABL and SRC” (Oribase Pharma, priority 2009, dated 2013) are described below.

Structures are written as SMILES. Where “and” joins values, the source holds several entries; their conditions need not be identical. Equal entries are not always repeated. Where two headings read alike, the source gives them in different places. Some results are limits rather than exact numbers.

The target of one assay is Abl WT (Homo sapiens (Human), UniProt P00519). Kind of assay: Reaction Biology Corp. kinase assay, Abl WT. In kind it is biochemical. Conditions: compounds tested by Reaction Biology Corp.; for inhibition at 10 µM: read-out: % inhibition of kinase activity, Abl WT (category); for IC50: ATP at 10 μM, read-out: IC50 on kinase Abl WT (category). On the procedure:
(§1) 4 compounds were tested for their capacity to inhibit various mutated kinases AbI (American company, Reaction Biology Corp.).

For another assay, the target named is Abl T315I (Homo sapiens (Human), UniProt P00519, T315I). Kind of assay: Reaction Biology Corp. kinase assay, mutated Abl T315I. It is filed as biochemical. Particulars: Reaction Biology Corp.; for inhibition at 10 µM: read-out: % inhibition of kinase activity, Abl T315I (category); for IC50: ATP at 10 μM, read-out: IC50 on kinase Abl T315I (category). The procedure: as §1

The test system of assay [1] is K562 cells expressing kinase Bcr-AbI. The experiment in a line: Inhibition of cellular proliferation (MTT), K562 cells. In kind it is cell-based, human. On the procedure:
Cellular tests were carried out at the Montpellier Cancer Research Centre. The inhibition of proliferation by our compounds was analysed on 2 cell lines (U937 and K562) by calculating the IC50, testing 6 concentrations in triplicate for each of the compounds and for each line.
Cells in exponential phase were seeded in 96-well plates at a concentration of 10^4 cells/100 μL/well. The final concentrations of compound in the well in contact with the cells were 0.1; 0.3; 0.9; 3.3; 10; 30; 90 μM. […]

A further assay has as its target Src kinase (Homo sapiens (Human), UniProt P12931). Kind of assay: Reaction Biology Corp. kinase assay, Src. Conditions: compounds tested by Reaction Biology Corp.; for IC50: IC50 on kinase Src (category), ATP at 10 μM; for inhibition at 10 µM: read-out: % inhibition of kinase activity, Src (category), 10 μM.
The mark [2] stands for this setting: Homo sapiens, K562, 24 h, 24 h incubation, read-out: IC50 at 24 h on K562 (category).
Setting [3] is: Homo sapiens, K562, 72 h, read-out: IC50 at 72 h on K562 (category), 72 h incubation.
The mark [4] stands for this setting: Homo sapiens, K562, incubation time not stated (24 h and/or 72 h), read-out: IC50 for the K562 Bcr-AbI kinase (category).

Src kinase, sequence (P12931 whole entry, looked up): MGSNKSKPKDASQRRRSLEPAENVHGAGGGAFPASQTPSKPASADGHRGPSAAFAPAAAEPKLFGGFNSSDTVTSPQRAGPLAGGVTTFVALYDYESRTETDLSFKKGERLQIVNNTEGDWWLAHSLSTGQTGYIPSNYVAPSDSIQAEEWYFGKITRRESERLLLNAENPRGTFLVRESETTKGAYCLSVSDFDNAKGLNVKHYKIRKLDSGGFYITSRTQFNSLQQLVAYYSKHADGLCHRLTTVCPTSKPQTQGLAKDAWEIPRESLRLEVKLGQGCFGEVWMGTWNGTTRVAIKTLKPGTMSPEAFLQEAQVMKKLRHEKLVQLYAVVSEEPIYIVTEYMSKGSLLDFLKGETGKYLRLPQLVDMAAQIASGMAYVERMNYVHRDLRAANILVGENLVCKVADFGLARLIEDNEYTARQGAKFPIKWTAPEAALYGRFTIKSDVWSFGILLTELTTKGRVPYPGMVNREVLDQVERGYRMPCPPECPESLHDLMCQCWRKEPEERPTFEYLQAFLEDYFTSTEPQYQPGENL

For `COC(=O)c1cc2cc(NC(=O)c3c(Cl)cccc3Cl)cnc2[nH]1` [ND0072, Methyl 5-(2,6-dichlorobenzamido)-1H-pyrrolo[2,3-b]pyridine-2-carboxylate], the inhibition at 10 µM on Abl WT was greater than 50%; at Abl T315I, less than 10%; at Src kinase, greater than 50%. Besides, the IC50 at Abl WT is 1 to 100 nM; in assay [1] (setting [2]) it was greater than 10000 nM; in assay [1] (setting [3]), 10 to 1000 nM; against Src kinase, 1 to 100 nM.

With `COC(=O)c1cc2cc(NC(=O)c3c(C)cccc3Cl)cnc2[nH]1` [ND0074, Methyl 5-(2-chloro-6-methylbenzamido)-1H-pyrrolo[2,3-b]pyridine-2-carboxylate], the IC50 at Abl WT is 1 to 100 nM; in assay [1] (setting [2]), greater than 10000 nM; in assay [1] (setting [3]) it was 10 to 1000 nM; in assay [1] (incubation time not stated (24 h and/or 72 h), read-out: IC50 for the K562 Bcr-AbI kinase (category)), greater than 10000 nM; against Src kinase, 1 to 100 nM. Moreover, the inhibition at 10 µM at Abl T315I was less than 10%; at Src kinase it was greater than 50%.

With `COC(=O)c1cc2cc(NC(=O)c3cccc(Br)c3)cnc2[nH]1` [ND0075, Methyl 5-(3-bromobenzamido)-1H-pyrrolo[2,3-b]pyridine-2-carboxylate], the inhibition at 10 µM at Abl WT, on Abl T315I and at Src kinase was 10 to 50% throughout.

Consider `COC(=O)c1cc2cc(NC(=O)c3ccccc3C)cnc2[nH]1` [ND0076, Methyl 5-(2-methylbenzamido)-1H-pyrrolo[2,3-b]pyridine-2-carboxylate], for which the inhibition at 10 µM is greater than 50% on Abl WT, less than 10% on Abl T315I and greater than 50% on Src kinase. The IC50 on Abl WT is 100 to 10000 nM; in assay [1] (setting [2]), 1000 to 10000 nM; in assay [1] (setting [3]) it was 10 to 1000 nM; in assay [1] (setting [4]), 10 nM.

For `COC(=O)c1cc2cc(NC(=O)c3ccccc3C(F)(F)F)cnc2[nH]1` [ND0077, Methyl 5-(2-(trifluoromethyl)benzamido)-1H-pyrrolo[2,3-b]pyridine-2-carboxylate], the inhibition at 10 µM on Abl WT is greater than 50%; at Abl T315I, less than 10%; at Src kinase, greater than 50%. The IC50 on Abl WT is 1 to 100 nM; against Src kinase, 1 to 100 nM and 100 to 10000 nM.

As for `COC(=O)c1cc2cc(NC(=O)c3ccccc3OC(F)(F)F)cnc2[nH]1` [ND0078, Methyl 5-(2-(trifluoromethoxy)benzamido)-1H-pyrrolo[2,3-b]pyridine-2-carboxylate], the inhibition at 10 µM is 10 to 50% on Abl WT, less than 10% on Abl T315I and 10 to 50% at Src kinase.

Turning to `COC(=O)c1cc2cc(NC(=O)c3cccs3)cnc2[nH]1` [ND0079, Methyl 5-(thiophene-2-carboxamido)-1H-pyrrolo[2,3-b]pyridine-2-carboxylate], the inhibition at 10 µM at Abl WT is 10 to 50%; on Abl T315I, less than 10%; at Src kinase, 10 to 50%.

With `COC(=O)c1cc2cc(NC(=O)c3ccc4[nH]ccc4c3)cnc2[nH]1` [ND0082], the inhibition at 10 µM at Abl WT is greater than 50%; at Abl T315I, less than 10%; at Src kinase, less than 10%. On Abl WT, the IC50 lay within 100 to 10000 nM.

As to `COC(=O)c1cc2cc(NC(=O)c3cc(C)n[nH]3)cnc2[nH]1` [ND0085], the inhibition at 10 µM was greater than 50% on Abl WT, less than 10% at Abl T315I and 10 to 50% at Src kinase. For the same molecule, at Abl WT, the IC50 lay within 100 to 10000 nM.

On to `COC(=O)c1cc2cc(NC(=O)c3cccc(S(=O)(=O)NCc4ccco4)c3)cnc2[nH]1` [ND0086], for which the inhibition at 10 µM is 10 to 50% on Abl WT, less than 10% at Abl T315I and less than 10% on Src kinase.

On to `COC(=O)c1cc2cc(NCc3c(Cl)cccc3Cl)cnc2[nH]1` [ND0087], for which the inhibition at 10 µM at Abl WT is greater than 50%; on Abl T315I, 10 to 50%; on Src kinase it was greater than 50%. For the same molecule, the IC50 at Abl WT was 1 to 100 nM; in assay [1] (setting [2]), 1000 to 10000 nM; in assay [1] (setting [3]) it was 10 to 1000 nM; in assay [1] (setting [4]) it was 10 nM; at Src kinase, 1 to 100 nM.

Regarding `COC(=O)c1cc2cc(NCc3ccccc3OC)cnc2[nH]1` [ND0088], the inhibition at 10 µM at Abl WT was greater than 50%; at Abl T315I, less than 10%; on Src kinase, greater than 50%. Besides, the concentration for half-maximal inhibition (IC50) at Abl WT and on Src kinase was 100 to 10000 nM throughout.

In the case of `COC(=O)c1cc2cc(NCc3c(C)cccc3Cl)cnc2[nH]1` [ND0089], the inhibition at 10 µM was greater than 50% at Abl WT, less than 10% at Abl T315I and greater than 50% on Src kinase. The IC50 at Abl WT is 1 to 100 nM; in assay [1] (setting [2]) it was greater than 10000 nM; in assay [1] (setting [3]) it was 10 to 1000 nM; against Src kinase, 1 to 100 nM.

Turning to `COC(=O)c1cc2cc(NCc3ccccc3C)cnc2[nH]1` [ND0090], the inhibition at 10 µM was greater than 50% on Abl WT, 10 to 50% at Abl T315I and greater than 50% at Src kinase. In addition, the IC50 was 1 to 100 nM at Abl WT; 1000 to 10000 nM in assay [1] (setting [2]); 10 to 1000 nM in assay [1] (setting [3]); 10 nM in assay [1] (setting [4]); 1 to 100 nM on Src kinase.

On to `COC(=O)c1cc2cc(NCc3ccccc3C(F)(F)F)cnc2[nH]1` [ND0091], for which the figures for the inhibition at 10 µM on Abl WT, at Abl T315I and at Src kinase were greater than 50%, less than 10% and greater than 50%, respectively. For the same molecule, the IC50 at Abl WT and against Src kinase was 100 to 10000 nM each time.

With `COC(=O)c1cc2cc(NCc3ccccc3OC(F)(F)F)cnc2[nH]1` [ND0092], the inhibition at 10 µM on Abl WT is 10 to 50%; on Abl T315I, less than 10%; at Src kinase, less than 10%.

With `COC(=O)c1cc2cc(NCc3cccs3)cnc2[nH]1` [ND0093], the figures for the inhibition at 10 µM on Abl WT, at Abl T315I and on Src kinase were greater than 50%, 10 to 50% and greater than 50%, respectively. Besides, the concentration for half-maximal inhibition (IC50) on Abl WT and against Src kinase was 100 to 10000 nM each time.

Consider `COC(=O)c1cc2cc(NCc3nccs3)cnc2[nH]1` [ND0094], for which the inhibition at 10 µM at Abl WT was greater than 50%; at Abl T315I it was 10 to 50%; on Src kinase, greater than 50%. Besides, the IC50 on Abl WT and at Src kinase was 100 to 10000 nM throughout.

With `COC(=O)c1cc2cc(NCc3ncc[nH]3)cnc2[nH]1` [ND0095], the inhibition at 10 µM on Abl WT was 10 to 50%; at Abl T315I, less than 10%; on Src kinase, 10 to 50%.

Turning to `COC(=O)c1cc2cc(NCc3ccc4[nH]ccc4c3)cnc2[nH]1` [ND0096], the inhibition at 10 µM on Abl WT, on Abl T315I and on Src kinase was greater than 50% in each case. Also, the half-maximal inhibitory concentration (IC50) on Abl WT is 1 to 100 nM; at Abl T315I, 100 to 10000 nM; in assay [1] (setting [2]), 1000 to 10000 nM; in assay [1] (setting [3]), 10 to 1000 nM; in assay [1] (setting [4]), 10 nM; at Src kinase it was 100 to 10000 nM.

On to `COC(=O)c1cc2cc(NCc3cc[nH]n3)cnc2[nH]1` [ND0098], for which the figures for the inhibition at 10 µM on Abl WT, on Abl T315I and on Src kinase were greater than 50%, less than 10% and greater than 50%, respectively. Further, the half-maximal inhibitory concentration (IC50) at Abl WT and against Src kinase was 100 to 10000 nM in each case.

Take `COC(=O)c1cc2cc(NCc3ccc(S(N)(=O)=O)cc3)cnc2[nH]1` [ND0101]: the inhibition at 10 µM at Abl WT was greater than 50%; at Abl T315I, less than 10%; on Src kinase it was 10 to 50%.

As for `COC(=O)c1cc2cc(Nc3cccc(I)c3)cnc2[nH]1` [ND0103], the results for the inhibition at 10 µM on Abl WT, on Abl T315I and on Src kinase were 10 to 50%, less than 10% and 10 to 50%, respectively.

Consider `COC(=O)c1cc2cc(Nc3ccc(I)cc3)cnc2[nH]1` [ND0108], for which the inhibition at 10 µM at Abl WT, on Abl T315I and on Src kinase was 10 to 50% throughout.

Consider `COC(=O)c1cc2cc(NC(=O)c3cc(NC(=O)c4ccc(CN5CCN(C)CC5)cc4)ccc3C)cnc2[nH]1` [ND0117, methyl 5-(5-(4-((4-methylpiperazin-1-yl)methyl)benzamido)-2-methylbenzamido)-1H-pyrrolo[2,3-b]pyridine-2-carboxylate], for which the inhibition at 10 µM was greater than 50% on Abl WT, 10 to 50% at Abl T315I and greater than 50% at Src kinase. Further, the concentration for half-maximal inhibition (IC50) at Abl WT was less than 1 nM; in assay [1] (setting [2]) it was 10 nM; in assay [1] (setting [3]) it was less than 10 nM; in assay [1] (setting [4]) it was 10 nM; against Src kinase, 1 to 100 nM.

Turning to `COC(=O)c1cc2cc(NCc3cc(NC(=O)c4ccc(CN5CCN(C)CC5)cc4)ccc3C)cnc2[nH]1` [ND0118, methyl 5-(5-(4-((4-methylpiperazin-1-yl)methyl)benzamido)-2-methyl-benzylamino)-1H-pyrrolo[2,3-b]pyridine-2-carboxylate], the inhibition at 10 µM on Abl WT, at Abl T315I and at Src kinase was greater than 50% each time. The concentration for half-maximal inhibition (IC50) was less than 1 nM at Abl WT; 100 to 10000 nM at Abl T315I; 1000 to 10000 nM in assay [1] (setting [2]); less than 10 nM in assay [1] (setting [3]); less than 1 nM against Src kinase.
